According to patent US5173500A, “Pharmaceutical compositions and methods of sulphonamides containing a tetrazolyl radical” (Boehringer Mannheim GmbH, priority 1988, dated 1992):

Tests used:
[1] = tested on: thrombocyte aggregation induced by thromboxane mimetic U 46619 (TX antagonistic effect); test: Thrombocyte aggregation induced by U 46619 in platelet-rich plasma (method of Born and Cross); type: cell-based; details: Homo sapiens, 5 min; platelet-rich plasma of healthy blood donors; aggregation induced by U 46619, followed over 5 minutes
Excerpt: Thrombocyte aggregation was investigated by the method of Born to Cross (J. Physiol. 168, 178 (1963)) in platelet-rich plasma of healthy blood donors. To inhibit clotting, the blood was mixed with 3.2% citrate in a ration by volume 1:9.
To induce thrombocyte aggregation, U 46619 (Upjohn & Co., Kalamazoo, Mich., USA), which is a stable analog of the prostagladin endoperoxide PHG2, was used. U 46619 has been characterized as a selective thromboxane mimetic (Coleman et al., Brit. J. Pharmacol. 68, 127 P., 1980).
The aggregation test was carried out in a 4-channel aggregometer (Profiler®, of the Bio/Data Co., USA). The course of the aggregation was followed over a period of 5 minutes. At the end of the test, the degree of aggregation attained was printed out. These values, which were obtained in the presence of different concentrations of the substance being tested, were used for the determination of the IC50 value for the TX antagonistic effect. The effectiveness varies inversely with the IC50 value.

[2] = tested on: Male NMRI mice challenged with lethal dose of U 46619; test: Survival of mice after lethal i.v. injection of thromboxane mimetic U 46619; type: in vivo; details: Mus musculus, iv, lethal dose U 46619 (800-1000 ug/kg) i.v. after 4 hours; for responders at 1 mg/kg: 1 mg/kg by stomach tube in 1% methylcellulose, read-out: Survival Rate of Mouse 1 mg/kg, 4 h in %; for responders at 25 mg/kg: 25 mg/kg by stomach tube in 1% methylcellulose, read-out: Survival Rate of Mouse 25 mg/kg, 4 h in %
Method: Male NMRI mice, with a body weight of 25 g, were used. The test substance was suspended in 1% methylcellulose and administered to the experimental animals with the aid of a stomach tube. The provacation test consisted of injecting a lethal dose (800-1000/ug/kg) of the thromboxane mimetic (U 46619, Upjohn Co.) rapidly into the tail vein. The duration of the specific antagonistic effect was tested by pretreating the animals with 25 or 1 mg/kg of the different test substances and injecting U 46619 after 4 hours. The survival rate indicates how many of the animals which were used survived the injection of the thromboxane mimetic.

## O=C(COc1ccc(CCNS(=O)(=O)c2ccc(Cl)cc2)cc1)Nc1nnn[nH]1 [Example 4, 4-[2-(4-Chlorobenzenesulphonamido)-ethyl]-phenoxyacetic acid (1H-tetrazol-5-yl)-amide]
[1]
  IC50: 9 µM
[2]
  responders at 1 mg/kg: 80%
  responders at 25 mg/kg: 100%

## O=C(Cc1ccc(CCNS(=O)(=O)c2ccc(Cl)cc2)cc1)Nc1nnn[nH]1 [Example 5, 4-[2-(4-Chlorobenzenesulphonamido)-ethyl]-phenylacetic acid (1H-tetrazol-5-yl)-amide]
[1]
  IC50: 0.9 µM
[2]
  responders at 1 mg/kg: 80%
  responders at 25 mg/kg: 100%

## Cc1ccc(S(=O)(=O)NCCc2cccc(OCC(=O)Nc3nnn[nH]3)c2)cc1 [Example 15, 3-[2-(4-Methylbenzenesulphonamido)-ethyl]-phenoxyacetic acid (1H-tetrazol-5-yl)-amide]
[1]
  IC50: 24 µM
[2]
  responders at 1 mg/kg: 100%
  responders at 25 mg/kg: 100%

## O=S(=O)(NCCc1ccc(Cc2nnn[nH]2)cc1)c1ccc(Cl)cc1 [Example 8, 5-{4-[2-(4-Chlorobenzenesulphonamido)-ethyl]-phenyl-methyl}-1H-tetrazole]
[1]
  IC50: 0.07 µM
[2]
  responders at 1 mg/kg: 100%
  responders at 25 mg/kg: 100%

## O=S(=O)(NCCc1ccc(Nc2nnn[nH]2)cc1)c1ccc(Cl)cc1 [Example 3, 4-[2-(4-Chlorobenzenesulphonamido)-ethyl]-N-(1H-tetrazole-5-yl)-aniline]
[1]
  IC50: 0.2 µM
[2]
  responders at 1 mg/kg: 20%
  responders at 25 mg/kg: 100%

## O=C(CCC(=O)c1ccc(CCNS(=O)(=O)c2ccc(Br)cc2)cc1)Nc1nnn[nH]1 [6/III, 4-Oxo-4-{4-[2-(4-bromobenzenesulphonamido)-ethyl]-phenyl}-butyric acid (1H-tetrazol-5-yl)-amide]
[1]
  IC50: 55 µM
[2]
  responders at 1 mg/kg: 100%
  responders at 25 mg/kg: 100%

## O=C(COc1cccc(CCNS(=O)(=O)c2ccccc2Cl)c1)Nc1nnn[nH]1 [Example 16, 3-[2-(2-Chlorobenzenesulphonamido)-ethyl]-phenoxyacetic acid (1H-tetrazol-5-yl)-amide]
[1]
  IC50: 17 µM
[2]
  responders at 1 mg/kg: 40%
  responders at 25 mg/kg: 100%

## O=C(COc1cccc(CCNS(=O)(=O)c2ccc(Cl)cc2)c1)Nc1nnn[nH]1 [Example 2, 3-[2-(4-Chlorobenzenesulphonamido)-ethyl]-phenoxyacetic acid (1H-tetrazol-5-yl)-amide]
[1]
  IC50: 6 µM
[2]
  responders at 1 mg/kg: 100%
  responders at 25 mg/kg: 100%
